Results published in patent publication US8642614B2, “Toll-like receptor modulators and uses thereof” (The Regents of the University of Colorado, a body corporate, priority 2009, dated 2014).
Read-outs that look alike come from different tables or passages of the source.

Legend:
[1] = tested on: LPS-induced TLR4 activation; test: Real time microscopy of Akt1-GFP translocation (TLR4 signaling) in RAW264.7 macrophages; assay type: cell-based, mouse; settings: RAW 264.7 Akt1-GFP, LPS 2 ng/ml
Experimental: Lipopolysaccharide (LPS)-induced TLR4 activation initiates the phosphoinositide 3-kinase (PI3K) cascade, triggering translocation of Akt1 to the plasma membrane in murine macrophages. RAW 264.7 cells transfected with an Akt1-GFP reporter13 were treated with drug then activated with LPS. In the absence of LPS, Akt1-GFP was uniformly diffused throughout the cytosol as observed by fluorescence microscopy. Addition of LPS (2 ng/ml) caused a rapid translocation of Akt1-GFP to the plasma membrane, lowering the Akt1-GFP concentration in the cytosol. Doses of Compound A-1 as low as 2 μM and Compound A-2 as low as 200 nM substantially abolished LPS-induced activation of the signaling pathway.
FIGS. 3A and 3B. A small dose of chemotactic peptide C5a (25 ng/mL) that stimulates PI3K15 was able to rescue the Akt signaling inhibited by either compound. […]
TLR4 signaling leads to the simultaneous activation of three parallel intra-cellular signaling pathways. […] Baseline fluorescence was captured for 5 frames, following which vehicle or antagonist was added in 200 μl. Imaging continued for a further 20 frames at which time LPS or test agonist (200 μl) were applied and monitored for a further 20 frames. […] GFP-Akt1 cytosolic clearance was quantified using ImageJ and expressed as a normalized change in cytoplasmic fluorescence over time.

TLR4 [2] = target: T1, TLR4 (Homo sapiens, UniProt O00206); test: Secreted alkaline phosphatase (SEAP) reporter gene assay in HEK293 cells transfected with TLR4; assay type: cell-based; settings: HEK293, SEAP reporter downstream of NF-κB promoter; dose-dependent manner
T1 sequence (O00206 24-839): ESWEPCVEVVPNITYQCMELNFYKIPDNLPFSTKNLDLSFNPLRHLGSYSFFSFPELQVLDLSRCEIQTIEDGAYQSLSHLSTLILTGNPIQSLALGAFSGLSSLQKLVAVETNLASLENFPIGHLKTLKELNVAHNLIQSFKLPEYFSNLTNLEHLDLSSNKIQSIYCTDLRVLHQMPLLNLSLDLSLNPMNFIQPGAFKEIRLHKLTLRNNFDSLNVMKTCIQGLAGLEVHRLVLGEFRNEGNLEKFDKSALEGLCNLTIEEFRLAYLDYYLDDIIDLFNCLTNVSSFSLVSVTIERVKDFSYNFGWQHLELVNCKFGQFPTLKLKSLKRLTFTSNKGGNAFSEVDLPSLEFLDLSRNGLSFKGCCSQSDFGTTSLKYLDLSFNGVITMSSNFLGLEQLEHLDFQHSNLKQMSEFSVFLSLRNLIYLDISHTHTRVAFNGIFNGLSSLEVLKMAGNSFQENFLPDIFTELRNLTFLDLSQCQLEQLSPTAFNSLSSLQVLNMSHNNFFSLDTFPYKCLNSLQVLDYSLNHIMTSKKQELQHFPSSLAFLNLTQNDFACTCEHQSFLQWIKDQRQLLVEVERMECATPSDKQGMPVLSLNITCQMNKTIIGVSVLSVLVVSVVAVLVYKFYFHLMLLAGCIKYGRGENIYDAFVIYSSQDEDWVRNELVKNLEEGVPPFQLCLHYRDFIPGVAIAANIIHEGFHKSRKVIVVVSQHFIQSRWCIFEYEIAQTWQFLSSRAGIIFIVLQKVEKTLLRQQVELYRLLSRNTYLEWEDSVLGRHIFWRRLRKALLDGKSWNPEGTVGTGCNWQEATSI
Experimental: FIGS. 3A and 3B. A small dose of chemotactic peptide C5a (25 ng/mL) that stimulates PI3K15 was able to rescue the Akt signaling inhibited by either compound. Global translocation of Akt1-GFP to the plasma membrane was observed, confirming that these cells retained normal Akt signaling transduction functions. Akt1 is directly downstream of TLR4 in the signal transduction pathway. […] Murine macrophages express a variety of TLRs and immune receptors. […] The activity of Compound A-1 was further confirmed in an established TLR4 assay in HEK293 cells, where a secreted alkaline phosphatase reporter gene is located downstream from the NF-κB promoter. Compound A-1 was effective at blocking the downstream proinflammatory effectors of TLR4 in a dose-dependent manner.
Materials for the SEAP assay were obtained from Applied Biosystems (CA, USA) and utilized according to the manufacturer's specifications. Human embryonic kidney 293 (HEK293) cells stably transfected with TLR4 and a secreted alkaline phosphatase (SEAP) reporter gene was obtained from Invivogen (CA, USA). […]
A sample of CSF buffer (15 μL) from each well was collected and transferred to an opaque white 96 well plate (Microfluor 2, Thermo Scientific MA, USA). […] After 20 min, the luminescence of each well was measured using a plate reader (Beckman Coulter, DTX 880, CA, USA) with multimode analysis software.

[3] = tested on: HEK293 cells stably transfected with TLR4; test: Cell viability assay (Trypan Blue); assay type: cell-based, human; settings: tested concentrations, FIG. 4
Experimental: Human embryonic kidney 293 (HEK293) cells were stably transfected with TLR4 and necessary assembly and signalling proteins (MD2, CD-14, LPSBP, etc.). Cells were cultured in DMEM supplemented with 10% FBS, penicillin (100 U/ml), streptomycin ([…]), L-glutamine (2 mM), 0.1 mg/ml normocin (InvivoGen, CA, USA) and 1×HEK Blue selection reagent (InvivoGen, CA, USA). Cells were implanted in 6 cm plates and grown to 65-75% confluency by incubating at 37° C., prior to drug treatment. On the day of treatment, media was removed from the 6 cm plate and replaced with cerebrospinal fluid (CSF) buffer supplemented with drug treatment. After 24 h incubation at 37° C., CSF was removed and cells were agitated with 0.05% Trypsin plus 0.2 g/l EDTA (Invitrogen, CA, USA) and re-suspended in fresh DMEM supplemented media. After re-suspension, a […] was taken from each 6 cm plate, mixed gently with 100 μl 0.4% Trypan Blue (Sigma, Mo., USA) and allowed to sit for 5 min. The ratio of blue stained cells to total cells was then quantified using a Bright Line 0.1 mm depth hemocytometer (VWR, PA, USA) under a Nikon TMS light microscope (Nikon Instrumentals, CA USA).

[4] = rat, in vivo
[5] = Hargreaves test (radiant heat withdrawal), intrathecal injection with or without morphine; settings: rat
TLR4 [6] = target: T1, TLR4; test: Whole blood model of inflammation (cytokine secretion after LPS or E. coli); assay type: cell-based
Experimental: Test of TLR4 inhibition by compounds of the invention with respect to impact on secretion of cytokines IL-6, IL-8, (TNFα) and IL1β in the whole blood model of inflammation was performed using the procedure described by Mollnes et al. (Blood, 2002, 100, 1869-1877) using (i) LPS to compare the two variants of 2126-HCl in a restricted set-up, (ii) gram negative bacteria to initiate innate immune response that involves both TLR4/MD2, TLR2, as well as the complement system (compare to anti-CD14 and compstatin).

TLR4 [7] = target: TLR4 (Homo sapiens, UniProt O00206+Q9Y6Y9)
Sequence of TLR4 (Homo sapiens, UniProt O00206+Q9Y6Y9) (O00206 24-839, species assumed): as the sequence (O00206 24-839) above
Sequence of TLR4 (Homo sapiens, UniProt O00206+Q9Y6Y9) (Q9Y6Y9 19-160, species assumed): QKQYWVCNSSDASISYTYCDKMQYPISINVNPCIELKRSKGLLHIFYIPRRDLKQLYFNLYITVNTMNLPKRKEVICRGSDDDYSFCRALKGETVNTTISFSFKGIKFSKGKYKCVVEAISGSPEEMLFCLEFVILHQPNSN

[8] = clinically employed (−)-opioids

SMILES: CCOc1ccc(OCC(O)CN(C)Cc2c(C)nn(Cc3ccccc3Cl)c2C)cc1 (stereo not drawn) [Compound A-1, 1-(((1-(2-chlorobenzyl)-3,5-dimethyl-1H-pyrazol-4-yl)methyl)(methyl)amino)-3-(4-ethoxyphenoxy)propan-2-ol]
- dose that substantially abolished LPS-induced activation of the signaling pathway [1]: ≤ 2 µM
- blocking the downstream proinflammatory effectors of TLR4 (TLR4 [2]): effective
- cellular toxicity [3]: neither Compound A-1 nor Compound A-2 showed any significant cellular toxicity
- behavioral effects of compound alone [4]: no detectable behavioral effects
- potentiation of the analgesic effects of morphine ([5]; with morphine, maximal analgesia recordable (10 s cut-off) across two hours): significantly potentiated
- effect on pain responsivity in the absence of co-administered morphine ([5]; without morphine): no effect

SMILES: CC[C@H](C)[C@H](N)C(=O)N[C@H]1CSSC[C@@H](C(=O)N[C@H](C(N)=O)[C@@H](C)O)NC(=O)[C@H](CCCN=C(N)N)NC(=O)[C@H](Cc2cnc[nH]2)NC(=O)[C@H](Cc2cnc[nH]2)NC(=O)CNC(=O)[C@H](Cc2c[nH]c3ccccc23)NC(=O)[C@H](CC(=O)O)NC(=O)[C@H](CCC(N)=O)NC(=O)[C@H](C(C)C)NC(=O)[C@H](C(C)C)NC1=O [compstatin]
- effect of compstatin on the inhibition of Il-6 levels by anti-CD14 and 2126-HCl (TLR4 [6]; E. coli as activator): increased the inhibitory effect
- reduction of Il-1β plasma levels (TLR4 [6]; E. coli stimulation, 2126-HCl 500 μM, compstatin 25 μM): about 50%
- cytokine release in response to E. coli on addition of compstatin (TLR4 [6]; E. coli, added to anti-CD14 or 2126-HCl): further decreased
- cytokine specificity (TLR4 [6]; compstatin itself): specific for Il8 and Il-1β
- effect on Il-6 secretion / plasma levels (TLR4 [6]; whole blood): little impact

SMILES: CCC(=O)C(CC(C)N(C)C)(c1ccccc1)c1ccccc1 (stereo not drawn) [methadone]
- TLR4 agonism (TLR4 [7]; [8]): TLR4 agonists

SMILES: CN1CC[C@]23c4c5ccc(O)c4O[C@H]2[C@@H](O)C=C[C@H]3[C@H]1C5 [morphine]
- TLR4 agonism (TLR4 [7]): TLR4 agonists

SMILES: COc1ccc2c3c1O[C@H]1C(=O)CC[C@@]4(O)[C@@H](C2)N(C)CC[C@]314 [oxycodone]
- TLR4 agonism (TLR4 [7]; [8]): TLR4 agonists

SMILES: CCOC(=O)C1(c2ccccc2)CCN(C)CC1 [pethadine/meperidine]
- TLR4 agonism (TLR4 [7]; [8]): TLR4 agonists
